From patent publication US20040037856A1, “Use of compounds containing a thio-ether, sulphoxide or sulphone function as cosmetic anti-pollution agent” (priority 2000, published 2004)

Tests used:
human keratinocytes [1] = test: Ozone-induced lipid hydroperoxides (DCFH-DA fluorescence) in monolayer culture of human keratinocytes; assay type: cell-based; settings: for % fluorescence observed ± SEM in the presence of CMC, relative to the unprotected controls: 24 h pretreatment with CMC 0.5 mg/ml, CMC 1 mg/ml in PBS during exposure (b102 says 200 μM), controls = 100%, n=4
Protocol: Ozone has the capacity to oxidize cell constituents, especially generating carbonylated proteins and lipid hydroperoxides. Quantification of the lipid hydroperoxides is one means of measuring the oxidative stress induced by exposing skin tissue to this pollutant. A decrease in their content indicates a protective effect. The study was performed on a monolayer culture of human keratinocytes. The cells are inoculated on D-3 into 48-well dishes at a rate of 25 000 cells/cm^2 in 500 μl of culture medium. The incubations are performed at 37° C., 5% CO2 under a humid atmosphere. The cells were pretreated for 24 hours with CMC (0.5 mg/ml, half-maximal dose that is nontoxic to the cells, dissolved in the culture medium). Hydroperoxides constitute an intracellular stress marker. They are detected and quantified by means of a fluorescence technique (Lebel C. P., Ischiropoulos H. and Bondy S. C. (1992) Evaluation of the probe 2,7-dichlorofluorescin as an indicator of Reactive Oxygen Species formation and oxidative stress. Chem. Res. Toxicol.; 5: 227-231). In the presence of intracellular hydroperoxides and peroxidases, DCFH is oxidized to fluorescent 2,7-dichlorofluorescein (DCF). The cells, pretreated for 24 hours with CMC, are then washed with PBS buffer and placed in contact for 30 minutes with a solution of DCFH-DA (500 μl/well), prepared in the culture medium to a concentration of 320 μM. The cells are again rinsed with PBS buffer and then placed in contact with a CMC solution at a concentration of 1 mg/ml in PBS (100 μl/well). They are then exposed to ozone (1 ppm), under a humid atmosphere, in an incubator set at 37° C. The formation of fluorescent DCF (excitation filter at 485 nm and emission filter at 530 nm) resulting from the production of hydroperoxides is measured after different times of exposure to ozone: 0, 5, 10 and 20 minutes. Toxicity of ozone toward human keratinocytes in culture, in the absence and presence of S-carboxymethylcysteine at a concentration of 200 μM, as a function of the exposure time (n=4). For each time, the fluorescence values of the unprotected controls are set at 100%. The results in the presence of CMC are then expressed relative to this control value. […] This protection is at a maximum from 5 minutes of exposure onward (67.7% drop in induced stress). It is still significant after 20 minutes of exposure (53.5% drop in induced stress) relative to the unprotected controls.

human keratinocytes [2] = test: Toxicity of CMC to the keratinocytes (nontoxic dose); assay type: cell-based; settings: dissolved in the culture medium, 24 hours
Protocol: The study was performed on a monolayer culture of human keratinocytes. The cells are inoculated on D-3 into 48-well dishes at a rate of 25 000 cells/cm^2 in 500 μl of culture medium. The incubations are performed at 37° C., 5% CO2 under a humid atmosphere.
The cells were pretreated for 24 hours with CMC (0.5 mg/ml, half-maximal dose that is nontoxic to the cells, dissolved in the culture medium).

SMILES: N[C@@H](CSCC(=O)O)C(=O)O [CMC, S-carboxymethylcysteine]
- % fluorescence observed ± SEM in the presence of CMC, relative to the unprotected controls (human keratinocytes [1]; 5 min. of contact with ozone (1 ppm)): 32.4 ± 5.9%
- drop in induced stress relative to the unprotected controls (human keratinocytes [1]; 5 minutes of exposure to ozone): 67.7%
- % fluorescence observed ± SEM in the presence of CMC, relative to the unprotected controls (human keratinocytes [1]; 10 min. of contact with ozone (1 ppm)): 33.7 ± 5.0%
- % fluorescence observed ± SEM in the presence of CMC, relative to the unprotected controls (human keratinocytes [1]; 20 min. of contact with ozone (1 ppm)): 46.5 ± 8.5%
- drop in induced stress relative to the unprotected controls (human keratinocytes [1]; 20 minutes of exposure to ozone): 53.5%
- protective effect against the effect induced by ozone (oxidative stress) (human keratinocytes [1]; human keratinocytes in vitro, ozone exposure): highly significant protective effect
- half-maximal dose that is nontoxic to the cells (human keratinocytes [2]): 0.5 mg/mL
